Data set [1] concerns V. aestuerianus (CIP 102971). Kind of data set: microbe, parasite or virus in culture. Format: cell-based, Vibrio aestueranius. As to conditions: for MBC: read-out: MBC Vibrio aestueranius. As for the experimental part:
(§1) The minimal growth inhibitory concentrations (MICs) of synthetic peptides (Genecust) were evaluated on Vibrio alginolyticus (CIP 109819), V. splendidus (CIP 107715), V. aestuerianus (CIP 102971), V. anguillarum (CIP 64.14), V. parahaemolyticus (CIP 73.30), Halomonas aquamarina (CIP 105454T), Escherichia coli (CIP 54.8T), Aeromonas salmonicida (CIP 103209T), Enteroccocus faecalis (CIP 76.117) and Lactococcus garvieae (CIP 104369) obtained from the “Collection de l’Institut Pasteur”. Bacteria were cultured in adapted media: Homemade marine broth (HMB, sea salts 20 g/L, peptone 5 g/L, yeast extract 3 g/L) for Vibrio species and H. aquamarina; Luria-Bertani (peptone 10 g/L, yeast extract 5 g/L, NaCl 10 g/L) for E. faecalis and E. coli; Trypticasein Soy Broth (TSB, Conda, 40 g/L) for A. salmonicida, and Brain Heart Infusion (BHI) (Conda, 37 g/L) for L. garvieae. MICs were determined in triplicate by liquid growth inhibition assays adapted from Hetru and Bulet. Briefly, 10 µL of peptide solution were incubated in Bioscreen honeycomb-well plates with 90 µl of bacterial suspension at a starting OD600 of 0.001 in BHI for L. garvieae, poor broth (peptone 10 g/L, NaCl 5 g/L) for E. faecalis and E. coli, TSB for A. salmonicida, HMB for H. aquamarina and saline poor broth (peptone 10 g/L, NaCl 15 g/L) for Vibrio species. Bacterial growth was monitored for 16 h by measuring OD600 values every 5 min (Bioscreen C, Labsystem, Finland). The peptides were tested alone at concentrations of 5 µM, 10 µM, 20 µM and 50 µM. For synergy, peptides pairs were tested at concentrations of 5 µM, 10 µM and 20 µM. Oxytetracycline at 5 µM and 10 µM was used as a positive control, and water was used as a blank. MICs were expressed in µM as an [a]–[b] concentration interval where [a] was the last concentration with bacterial growth and [b] was the first concentration with 100% bacterial growth inhibition. MBCs (minimal bactericidal concentrations) were expressed in µM as an [a]–[b] concentration interval where [a] was the last concentration with bacterial growth and [b] was the first concentration that killed 100% of the bacteria.

Data set [2] deals with V. splendidus (CIP 107715). The data set can be described thus: microbe, parasite or virus in culture. In kind it is cell-based, Vibrio splendidus. As for the experimental part:
as §1

Data set [3] concerns Vibrio alginolyticus (CIP 109819). The data set can be described thus: microbe, parasite or virus in culture. In kind it is cell-based. How it is done: as §1
Data set [4] concerns Escherichia coli (CIP 54.8T). The data set can be described thus: microbe, parasite or virus in culture. In kind it is cell-based. How it is done:
as §1

Data set [5] has as its system V. parahaemolyticus (CIP 73.30). The data set can be described thus: microbe, parasite or virus in culture. Format: cell-based, Vibrio parahaemolyticus. As to conditions: for MIC: read-out: MIC Vibrio parahaemo-lyticus. How it is done: as §1
For data set [6], the system named is Enteroccocus faecalis (CIP 76.117). Kind of data set: Liquid growth inhibition assay (MIC/MBC). In kind it is cell-based. As to conditions: Enterococcus faecalis, CIP76, poor broth, triplicate, interval [a]-[b], '-' = not active. As for the experimental part:
as §1

In data set [7] the test system is Aeromonas salmonicida (CIP 103209T). Kind of data set: Liquid growth inhibition assay (MIC/MBC). As to conditions: TSB, triplicate, interval [a]-[b], '-' = not active. Format: cell-based. As for the experimental part: as §1
Data set [8] has as its system Lactococcus garvieae (CIP 104369). The data set can be described thus: Liquid growth inhibition assay (MIC/MBC). Format: cell-based. As to conditions: CIP104369, BHI, triplicate, interval [a]-[b], '-' = not active. As for the experimental part:
as §1

For data set [9], the system named is Halomonas aquamarina (CIP 105454T). The data set can be described thus: Liquid growth inhibition assay (MIC/MBC). Format: cell-based. As to conditions: Vreelandella aquamarina; HMB, starting OD600 0.001, 16 h, triplicate; interval [a]-[b]; '-' = not active. How it is done:
as §1

The test system of data set [10] is V. anguillarum (CIP 64.14). Kind of data set: microbe, parasite or virus in culture. In kind it is cell-based, Vibrio anguillarum. How it is done:
as §1

The test system of another data set is human red blood cells. Format: cell-based. How it is done: The haemolytic activity of the synthetic peptides was determined in triplicate on human red blood cells (RBCs) as described by Duval and collaborators. Briefly, RBCs were pelleted and washed three times in phosphate-buffered saline (PBS). Then, they were resuspended in PBS to obtain a 1% solution of RBC. Ten microliters of peptide solution were incubated with 90 µL of the RBC 1% solution for 1 h at 37 °C. The peptides were diluted in PBS and tested at different concentrations: 5 µM, 20 µM, 50 µM and 100 µM. Haemolytic activity was determined by measuring the OD at 415 nm. Zero haemolysis and total (100%) haemolysis were determined with PBS and 1% Triton X-100 solutions, respectively.

Read-outs that look alike come from different tables or passages of the source. No end group written: not given here.

Data on four molecules can be found in article PMC7551771, “In-Depth In Silico Search for Cuttlefish (Sepia officinalis) Antimicrobial Peptides Following Bacterial Challenge of Haemocytes” (Marine Drugs, 2020).

For the molecule `CN(C)[C@@H]1C(O)=C(C(N)=O)C(=O)[C@@]2(O)C(O)=C3C(=O)c4c(O)cccc4[C@@](C)(O)[C@H]3[C@H](O)[C@@H]12` [Ox, Oxytetracycline], the MIC is no more than 5 µM in [1] (Vibrio, CIP102971, saline poor broth, starting OD600 0.001, 16 h, triplicate, interval [a]-[b], '-' = not active, read-out: MIC Vibrio aestueranius); no more than 5 µM in data set [2] (Vibrio splendidus, CIP107715, saline poor broth, starting OD600 0.001, 16 h, triplicate, interval [a]-[b], '-' = not active); no more than 5 µM in data set [2] (saline poor broth, starting OD600 0.001, 16 h, triplicate, interval [a]-[b], '-' = not active, read-out: MIC Vibrio splendidus); no more than 5 µM in data set [3] (Vibrio alginolyticus, CIP109819, saline poor broth, starting OD600 0.001, growth monitored 16 h, triplicate, interval [a]-[b], b = first concentration with 100% growth inhibition, peptides 5-50 µM, pairs 5-20 µM, oxytetracycline 5 and 10 µM, '-' = not active); no more than 5 µM in [3] (saline poor broth, starting OD600 0.001, growth monitored 16 h, triplicate, interval [a]-[b], b = first concentration with 100% growth inhibition, peptides 5-50 µM, pairs 5-20 µM, oxytetracycline 5 and 10 µM, '-' = not active); no more than 5 µM in data set [4] (Escherichia coli, CIP54, poor broth, starting OD600 0.001, 16 h, triplicate, interval [a]-[b], '-' = not active). The MIC was no more than 5 µM in [5] (Vibrio parahaemolyticus, CIP73, saline poor broth, starting OD600 0.001, 16 h, triplicate, interval [a]-[b], '-' = not active); no more than 5 µM in data set [5] (saline poor broth, starting OD600 0.001, 16 h, triplicate, interval [a]-[b], '-' = not active); no more than 5 µM in data set [6] (starting OD600 0.001, 16 h); no more than 5 µM in data set [7] (starting OD600 0.001, 16 h); no more than 5 µM in data set [8] (starting OD600 0.001, 16 h); greater than 10 µM in data set [9]. The MIC in [10] (Vibrio anguillarum, CIP64, saline poor broth, starting OD600 0.001, 16 h, triplicate, interval [a]-[b], '-' = not active) was no more than 5 µM. In addition, the MBC was no more than 5 µM in data set [1] (Vibrio, CIP102971, saline poor broth, triplicate, interval [a]-[b], '-' = not active); no more than 5 µM in [2] (Vibrio splendidus, CIP107715, saline poor broth, triplicate, interval [a]-[b], '-' = not active); no more than 5 µM in [3] (Vibrio alginolyticus, CIP109819, saline poor broth, triplicate, interval [a]-[b], b = first concentration that killed 100% of the bacteria, '-' = not active); no more than 5 µM in data set [4] (Escherichia coli, CIP54, poor broth, triplicate, interval [a]-[b], '-' = not active); no more than 5 µM in [5] (Vibrio parahaemolyticus, CIP73, saline poor broth, triplicate, interval [a]-[b], '-' = not active, read-out: MBC Vibrio parahaemo-lyticus); 5 to 10 µM in [6]. Also, the MBC is no more than 5 µM in data set [7]; greater than 10 µM in data set [8]; no more than 5 µM in data set [10] (Vibrio anguillarum, CIP64, saline poor broth, triplicate, interval [a]-[b], '-' = not active).
As for ASSFLTPRLSSLGKRSWAV [AV19], in [2] (CIP 107715, 16 h), the “MBC Vibrio splendidus” value was 10 to 20 µM and the “MIC Vibrio splendidus” value lay within 10 to 20 µM. Besides, in data set [5] (CIP 73, 16 h), the “MBC Vibrio parahaemo-lyticus” value was in the range of 20 to 50 µM and the “MIC Vibrio parahaemo-lyticus” value fell in the range of 10 to 20 µM. Besides, in the data set with human red blood cells, the “concentrations at which haemolytic” value was 50 to 100 µM.
For GFCNFMHLKPISRELRRELYGRTRRRRK [GK28], in data set [1] (CIP 102971, 16 h), the “MIC Vibrio aestueranius” value was in the range of 10 to 20 µM and the MBC is greater than 50 µM. Moreover, the MBC in data set [2] (CIP 107715, 16 h, read-out: MBC Vibrio splendidus) was no more than 5 µM. The MIC in data set [2] (CIP 107715, 16 h, read-out: MIC Vibrio splendidus) is on record as no more than 5 µM. The MIC in [3] (CIP 109819, 16 h) is listed as no more than 5 µM. For the same molecule, in data set [3] (saline poor broth, triplicate, interval [a]-[b], b = first concentration that killed 100% of the bacteria, '-' = not active), the “MBC Vibrio alginolyticus” value is 20 to 50 µM. Moreover, in data set [4] (CIP 54, 16 h), the “MBC Escherichia coli” value fell in the range of 20 to 50 µM and the MIC was no more than 5 µM. Further, in data set [5] (CIP 73, 16 h), the “MBC Vibrio parahaemo-lyticus” value was 10 to 20 µM and the MIC is given as no more than 5 µM. Further, in data set [10] (CIP 64, 16 h), the “MBC Vibrio anguillarum” value lay within 20 to 50 µM and the “MIC Vibrio anguillarum” value lay within 10 to 20 µM.
Turning to NYWLLVLRRLLITKKVMWF [NF19], in [2] (CIP 107715, 16 h), the “MBC Vibrio splendidus” value lay in the range of 10 to 20 µM and the “MIC Vibrio splendidus” value is 5 to 10 µM. Also, in the data set with human red blood cells, the “concentrations at which haemolytic” value was 50 to 100 µM.
